Laboratory results published in PubChem BioAssay (NCI).
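The compound was tested at five concentrations on cells cultured in 96-well plates, with a 48-hour exposure period. TGI: concentration producing complete growth inhibition.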

Columns and labels:
Assay in all cases: NCI-60 cell line screen, 48 h
SK-MEL-2 melanoma = test system: SK-MEL-2 melanoma
DU-145 prostate = test system: DU-145 prostate
SNB-75 CNS = test system: SNB-75 CNS
U251 CNS = test system: U251 CNS
LOX IMVI melanoma = test system: LOX IMVI melanoma
NCI-H23 lung = test system: NCI-H23 lung
UACC-62 melanoma = test system: UACC-62 melanoma
HCT-15 colon = test system: HCT-15 colon
MCF7 breast = test system: MCF7 breast
COLO 205 colon = test system: COLO 205 colon
M14 melanoma = test system: M14 melanoma
RPMI-8226 leukemia = test system: RPMI-8226 leukemia
ACHN renal = test system: ACHN renal
UO-31 renal = test system: UO-31 renal
HT29 colon = test system: HT29 colon
HOP-62 NSCLC = test system: HOP-62 NSCLC
K-562 leukemia = test system: K-562 leukemia
MDA-N = test system: MDA-N
UACC-257 melanoma = test system: UACC-257 melanoma
TK-10 renal = test system: TK-10 renal
HCC-2998 colon = test system: HCC-2998 colon
HOP-92 NSCLC = test system: HOP-92 NSCLC
KM12 colon = test system: KM12 colon
OVCAR-5 ovarian = test system: OVCAR-5 ovarian
MALME-3M melanoma = test system: MALME-3M melanoma
PC-3 prostate = test system: PC-3 prostate
SK-MEL-28 melanoma = test system: SK-MEL-28 melanoma
SW-620 colon = test system: SW-620 colon
OVCAR-3 ovarian = test system: OVCAR-3 ovarian
SF-295 CNS = test system: SF-295 CNS
SF-539 CNS = test system: SF-539 CNS

COC[C@H]1C(=O)NCC(=O)N2N=CCC[C@H]2C(=O)N(O)[C@H](C)C(=O)O[C@@H](C(C)C)[C@H](NC(=O)[C@@](C)(O)[C@]2(O)CC[C@@H](CC(C)C)[C@H](C)O2)C(=O)N2NCCC[C@@H]2C(=O)N1O
TGI (SK-MEL-2 melanoma): 27.6 nM | TGI (DU-145 prostate): 168 nM | TGI (SNB-75 CNS): < 15.9 nM | TGI (U251 CNS): 30 nM | TGI (LOX IMVI melanoma): 31.6 nM | TGI (NCI-H23 lung): 31.2 nM | TGI (UACC-62 melanoma): 32.2 nM | TGI (HCT-15 colon): 253 nM | TGI (MCF7 breast): 29.7 nM | TGI (COLO 205 colon): 31.9 nM | TGI (M14 melanoma): 35.5 nM | TGI (RPMI-8226 leukemia): > 100000 nM | TGI (ACHN renal): 147 nM | TGI (UO-31 renal): 341 nM | TGI (HT29 colon): 30.7 nM | TGI (HOP-62 NSCLC): 32.2 nM | TGI (K-562 leukemia): > 100000 nM | TGI (MDA-N): 32.3 nM | TGI (UACC-257 melanoma): 32.8 nM | TGI (TK-10 renal): 32.2 nM | TGI (HCC-2998 colon): 27.9 nM | TGI (HOP-92 NSCLC): 33.4 nM | TGI (KM12 colon): 27.6 nM | TGI (OVCAR-5 ovarian): 34.1 nM | TGI (MALME-3M melanoma): 30.7 nM | TGI (PC-3 prostate): 31.8 nM | TGI (SK-MEL-28 melanoma): 31.5 nM | TGI (SW-620 colon): 30 nM | TGI (OVCAR-3 ovarian): 36.2 nM | TGI (SF-295 CNS): 31.1 nM | TGI (SF-539 CNS): 29.7 nM
